Data: US20110166121A1 (LG LIFE SCIENCES LTD., priority 2008, published 2011)
Several values for one entry are separate records, joined by “and”; a condition that tells them apart may be missing. Equal values may be shown once.

Assays:
[1] = system: Human platelet aggregation caused by ADP; assay: Inhibition of ADP-induced platelet aggregation (Mimic-human PRP); format: cell-based; details: 20 μM ADP, human platelet concentrate diluted with PPP, absorption at 595 nm
Summary of the method: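 Ki came from non-linear sigmoidal fits of inhibition, measured as the 3-min rise in absorbance at 595 nm after 20 μM ADP, relative to 0/20 μM ADP controls. Platelets (3–4×10^8/mL in PPP-diluted human PRP) were exposed to 0.01–30 μM compound for 20 min at room temperature beforehand.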

Human P2Y12 receptor = biological target: T1, Human P2Y12 receptor (Homo sapiens, UniProt Q9H244); assay: Human P2Y12 receptor cell membrane binding assay with [3H] 2-Mes-ADP; details: 1 nM [3H] 2-Mes-ADP; for IC50: membranes of HEK cells expressing P2Y12 receptor, read-out: Binding activity (IC50); for inhibition at 30 µM: 30 μM compound
T1 construct: expressed in transfected cells; host or cells: HEK cells
T1 sequence (Q9H244 whole entry): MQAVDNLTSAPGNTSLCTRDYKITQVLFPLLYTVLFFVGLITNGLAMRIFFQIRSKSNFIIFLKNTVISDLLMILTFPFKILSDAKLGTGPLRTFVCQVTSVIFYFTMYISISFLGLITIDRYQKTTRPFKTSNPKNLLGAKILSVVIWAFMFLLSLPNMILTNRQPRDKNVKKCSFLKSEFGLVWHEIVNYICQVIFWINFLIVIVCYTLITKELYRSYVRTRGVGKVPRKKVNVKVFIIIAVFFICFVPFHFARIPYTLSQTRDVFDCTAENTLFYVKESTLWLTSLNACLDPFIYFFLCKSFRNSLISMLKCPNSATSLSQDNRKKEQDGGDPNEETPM
Description: Human P2Y12 Receptor Cell Membrane Binding Assay with [^3H] 2-Mes-ADP
Whether test compounds bind to P2Y12 receptor is measured by [3H]-2MesADP binding in HEK cells expressing P2Y12 receptor. The efficacy according to the amount of test compound can be known through the above test, competitive binding test to P2Y12 receptor, in which the binding material (2-Mes-ADP) is labeled with radioactivity isotope and then the extent of inhibition against the binding of radioactively labeled material is measured.
Preparation of P2Y12 Membrane Protein Fraction
Harvested P2Y12 cells were resuspended with Hypotonic buffer (10 mM HEPES, 10 mM NaCl, 1 mM EDTA, 1 mM EGTA pH 7.4) containing protease inhibitor cocktail. Following the incubation on ice for 15 min, cells were homogenized on ice (Glass/Teflon homogenizer; 1,000 rpm, 10 strokes). The supernant was taken from centrifugation at 500×g for 15 min and then recentrifuged the supernant at 30,000 rpm for 30 min. The membrane pellet was adjusted to 1 mg/mL concentration and stored at −80° C.
P2Y12 Receptor Cell Membrane Binding Assay with [3H] 2-Mes-ADP
The volume of 100 μL of 200 μg membrane protein was aliquoted into 96 well plate. 50 μL volume of test compounds and [^3H] 2-Mes-ADP (final: 1 nM) were added into each well. The total reaction of 0.2 ml/well was incubated for 1 hour at R.T. The reaction was terminated by filtration through GF/B filter using a 96-well cell harvester. […] Radioactivity bound to P2Y12 receptor membrane was counted in a scintillation counter. Total binding was determined with CPM of test group having no compound and non-specific binding was determined with CPM of test group containing 10 μM 2-Mes-ADP. Binding inhibition percent was calculated as follows: [100−(specific binding in the presence of test material/specific binding in the absence of test material×100)].

Row | SMILES | Ki [1] | IC50 (Human P2Y12 receptor) | inhibition at 30 µM (Human P2Y12 receptor)
1 | CCCc1cc2c(N3CCn4c(nnc4C(F)(F)F)C3)nc(N3CCNC(=O)C3)nc2s1 [Example 1-1, 4-[6-Propyl-4-(3-trifluoromethyl-5,6-dihydro-8H-[1,2,4]triazolo[4,3-a]pyrazin-7-yl)-thieno[2,3-d]pyrimidin-2-yl]-piperazin-2-one] | 130 nM | 20 nM | 
2 | CCCc1cc2c(N3CCn4c(nnc4C(F)(F)F)C3)nc(N3CCN(C)CC3)nc2s1 [Example 1-3, 7-[2-(4-Methyl-piperazin-1-yl)-6-propyl-thieno[2,3-d]pyrimidin-4-yl]-3-trifluoromethyl-5,6,7,8-tetrahydro-[1,2,4]triazolo[4,3-a]pyrazine] | 164 nM | 92 nM | 
3 | CCCc1cc2c(N3CCn4c(nnc4C(F)(F)F)C3)nc(N3CCNCC3)nc2s1 [Example 1-4, 7-(2-piperazin-1-yl-6-propyl-thieno[2,3-d]pyrimidin-4-yl)-3-trifluoromethyl-5,6,7,8-tetrahydro-[1,2,4]triazolo[4,3-a]pyrazine] | 300 nM | 64 nM | 
4 | CCCc1cc2c(N3CCn4c(nnc4C(F)(F)F)C3)nc(N3CCN(CCO)CC3)nc2s1 [Example 1-5, 2-{4-[6-Propyl-4-(3-trifluoromethyl-5,6-dihydro-8H-[1,2,4]triazolo[4,3-a]pyrazin-7-yl)-thieno[2,3-d]pyrimidin-2-yl]-piperazin-1-yl}-ethanol] | 160 nM and 210 nM | 96 nM | 
5 | CCCc1cc2c(N3CCn4c(nnc4C(F)(F)F)C3)nc(N3CCN(C(=O)OCC)CC3)nc2s1 [Example 1-7, 4-[6-Propyl-4-(3-trifluoromethyl-5,6-dihydro-8H-[1,2,4]triazolo[4,3-a]pyrazin-7-yl)-thieno[2,3-d]pyrimidin-2-yl]-piperazine-1-carboxylic acid ethyl ester] | 770 nM | 220 nM | 
6 | CCCc1cc2c(N3CCn4c(nnc4C(F)(F)F)C3)nc(N3CCN(S(=O)(=O)CC)CC3)nc2s1 [Example 1-8, 7-[2-(4-Ethanesulfonyl-piperazin-1-yl)-6-propyl-thieno[2,3-d]pyrimidin-4-yl]-3-trifluoromethyl-5,6,7,8-tetrahydro-[1,2,4]triazolo[4,3-a]pyrazine] | 300 nM | 56 nM | 
7 | CCCc1cc2c(N3CCn4c(nnc4C(F)(F)F)C3)nc(N3CCN(C(=O)CO)CC3)nc2s1 [Example 1-9, 2-Hydroxy-1-{4-[6-propyl-4-(3-trifluoromethyl-5,6-dihydro-8H-[1,2,4]triazolo[4,3-a]pyrazin-7-yl)-thieno[2,3-d]pyrimidin-2-yl]-piperazin-1-yl}-ethanone] | 500 nM | 70 nM | 
8 | CCc1cc2c(N3CCc4ccccc4C3)nc(N3CCNC(=O)C3)nc2s1 [Example 6-27, 4-[4-(3,4-Dihydro-1H-isoquinolin-2-yl)-6-ethyl-thieno[2,3-d]pyrimidin-2-yl]-piperazin-2-one] |  | 10000 nM | 
9 | CCc1cc2c(N3CCc4cc(OC)c(OC)cc4C3)nc(N3CCNC(=O)C3)nc2s1 [Example 6-28, 4-[4-(6,7-Dimethoxy-3,4-dihydro-1H-isoquinolin-2-yl)-6-ethyl-thieno[2,3-d]pyrimidin-2-yl]-piperazin-2-one] |  | 5600 nM | 
10 | CCc1cc2c(N3CCc4c([nH]c5ccccc45)C3)nc(N3CCNC(=O)C3)nc2s1 [Example 6-29, 4-[6-Ethyl-4-(1,3,4,9-tetrahydro-beta-carbolin-2-yl)-thieno[2,3-d]pyrimidin-2-yl]-piperazin-2-one] |  | 29800 nM | 
11 | CCc1cc2c(N3CCc4c(ncnc4C(F)(F)F)C3)nc(N3CCNC(=O)C3)nc2s1 [Example 6-30, 4-[6-Ethyl-4-(4-trifluoromethyl-5,8-dihydro-6H-pyrido[3,4-d]pyrimidin-7-yl)-thieno[2,3-d]pyrimidin-2-yl]-piperazin-2-one] |  | 1040 nM | 
12 | CCc1cc2c(N3CCc4c(nc(C(F)(F)F)nc4C(F)(F)F)C3)nc(N3CCNC(=O)C3)nc2s1 [Example 6-31, 4-[4-(2,4-Bis-trifluoromethyl-5,8-dihydro-6H-pyrido[3,4-d]pyrimidin-7-yl)-6-ethyl-thieno[2,3-d]pyrimidin-2-yl]-piperazin-2-one] |  | 4660 nM | 
13 | CCc1cc2c(N3CCc4c(nc(C(F)(F)F)nc4C(F)(F)F)C3)nc(OCC(O)CO)nc2s1 (centres unmarked) [Example 6-32, 3-[4-(2,4-Bis-trifluoromethyl-5,8-dihydro-6H-pyrido[3,4-d]pyrimidin-7-yl)-6-ethyl-thieno[2,3-d]pyrimidin-2-yloxy]-propane-1,2-diol] |  | 4640 nM | 
14 | CCCc1cc2c(N3CCc4c(nc(C(F)(F)F)nc4C(F)(F)F)C3)nc(N3CCNC(=O)C3)nc2s1 [Example 6-33, 4-[4-(2,4-Bis-trifluoromethyl-5,8-dihydro-6H-pyrido[3,4-d]pyrimidin-7-yl)-6-propyl-thieno[2,3-d]pyrimidin-2-yl]-piperazin-2-one] |  | 2370 nM | 
15 | CCc1cc2c(N3CCc4c(nc(C)nc4C(F)(F)F)C3)nc(N3CCNC(=O)C3)nc2s1 [Example 6-34, 4-[6-Ethyl-4-(2-methyl-4-trifluoromethyl-5,8-dihydro-6H-pyrido[3,4-d]pyrimidin-7-yl)-thieno[2,3-d]pyrimidin-2-yl]-piperazin-2-one] |  | 120 nM | 
16 | CCc1cc2c(N3CCc4c(nc(C)nc4C(F)(F)F)C3)nc(OCC(O)CO)nc2s1 (centres unmarked) [Example 6-35, 3-[6-Ethyl-4-(2-methyl-4-trifluoromethyl-5,8-dihydro-6H-pyrido[3,4-d]pyrimidin-7-yl)-thieno[2,3-d]pyrimidin-2-yloxy]-propane-1,2-diol] |  | 2300 nM | 
17 | CCCc1cc2c(N3CCc4c(nc(C)nc4C(F)(F)F)C3)nc(N3CCNC(=O)C3)nc2s1 [Example 6-36, 4-[4-(2-Methyl-4-trifluoromethyl-5,8-dihydro-6H-pyrido[3,4-d]pyrimidin-7-yl)-6-propyl-thieno[2,3-d]pyrimidin-2-yl]-piperazin-2-one] |  | 640 nM | 
18 | CCc1cc2c(N3CCc4c(nc(-c5ccccc5)nc4C(F)(F)F)C3)nc(N3CCNC(=O)C3)nc2s1 [Example 6-37, 4-[6-Ethyl-4-(2-phenyl-4-trifluoromethyl-5,8-dihydro-6H-pyrido[3,4-d]pyrimidin-7-yl)-thieno[2,3-d]pyrimidin-2-yl]-piperazin-2-one] |  | 400 nM | 
19 | CCCc1cc2c(N3CCc4c(nc(-c5ccccc5)nc4C(F)(F)F)C3)nc(N3CCNC(=O)C3)nc2s1 [Example 6-38, 4-[4-(2-Phenyl-4-trifluoromethyl-5,8-dihydro-6H-pyrido[3,4-d]pyrimidin-7-yl)-6-propyl-thieno[2,3-d]pyrimidin-2-yl]-piperazin-2-one] |  | 4420 nM | 
20 | CCc1cc2c(N3CCc4c(nc(-c5ccoc5)nc4C(F)(F)F)C3)nc(N3CCNC(=O)C3)nc2s1 [Example 6-39, 4-[6-Ethyl-4-(2-furan-3-yl-4-trifluoromethyl-5,8-dihydro-6H-pyrido[3,4-d]pyrimidin-7-yl)-thieno[2,3-d]pyrimidin-2-yl]-piperazin-2-one] |  | 1500 nM | 
21 | CCc1cc2c(N3CCc4c(nc(-c5ccoc5)nc4C(F)(F)F)C3)nc(NCC(O)CO)nc2s1 (centres unmarked) [Example 6-40, 3-[6-Ethyl-4-(2-furan-3-yl-4-trifluoromethyl-5,8-dihydro-6H-pyrido[3,4-d]pyrimidin-7-yl)-thieno[2,3-d]pyrimidin-2-ylamino]-propane-1,2-diol] |  | 1950 nM | 
22 | CCc1cc2c(N3CCc4c([nH]n(C)c4=O)C3)nc(N3CCNC(=O)C3)nc2s1 [Example 6-41, 6-[6-Ethyl-2-(3-oxo-piperazin-1-yl)-thieno[2,3-d]pyrimidin-4-yl]-2-methyl-1,2,4,5,6,7-hexahydro-pyrazolo[3,4-c]pyridin-3-one] |  |  | 23.6%
23 | CCc1cc2c(N3CCc4c([nH]n(C)c4=O)C3)nc(OCC(O)CO)nc2s1 (centres unmarked) [Example 6-42, 6-[2-(2,3-Dihydroxy-propoxy)-6-ethyl-thieno[2,3-d]pyrimidin-4-yl]-2-methyl-1,2,4,5,6,7-hexahydro-pyrazolo[3,4-c]pyridin-3-one] |  |  | 26.4%
24 | CCc1cc2c(N3CCc4c([nH]n(CCO)c4=O)C3)nc(N3CCNC(=O)C3)nc2s1 [Example 6-43, 6-[6-Ethyl-2-(3-oxo-piperazin-1-yl)-thieno[2,3-d]pyrimidin-4-yl]-2-(2-hydroxy-ethyl)-1,2,4,5,6,7-hexahydro-pyrazolo[3,4-c]pyridin-3-one] |  | 46400 nM | 
25 | CCc1cc2c(N3CCc4c([nH]n(-c5ccccc5)c4=O)C3)nc(N3CCNC(=O)C3)nc2s1 [Example 6-44, 6-[6-Ethyl-2-(3-oxo-piperazin-1-yl)-thieno[2,3-d]pyrimidin-4-yl]-2-phenyl-1,2,4,5,6,7-hexahydro-pyrazolo[3,4-c]pyridin-3-one] |  | 21500 nM | 
